# US9604933B2, “Pyrazolochalcones as potential anticancer agents” (COUNCIL OF SCIENTIFIC AND INDUSTRIAL RESEARCH, priority 2013, dated 2017)
# Like-named read-outs stand apart in the source and are kept apart here.
# Experiments:
# SK-MEL-2 = assay: NCI SRB cytotoxicity, melanoma SK-MEL-2; assay type: cell-based; conditions: Homo sapiens, 48 h exposure
# Method: (§1) The pyrazolochalcones (7e, 8e, 10e, 11e, 12e, 13e and 8f) have been tested against fifty nine human tumor cell lines derived from nine cancer types (leukemia, non-small cell lung cancer, colon cancer, CNS cancer, melanoma, ovarian cancer, renal cancer, prostate cancer and breast cancer) as per the NCI protocol. For each compound, dose response curves for individual cell lines have been measured at a minimum of five concentrations at 10 fold dilutions. A protocol of 48 h continuous drug exposure has been used, and a sulforhodamine B (SRB) protein assay has been used to estimate cell viability or growth. The concentration for 50% cell growth inhibition (GI50), 50% cell death (LC50, 50% growth) and total cell growth inhibition (TGI, 0% growth) values were tabulated (Table-1). DMSO was used as control to calculate the values of GI50, LC50 and TGI. The compounds 7e, 8e, 10e, 11e, 12e, 13e and 8f has been evaluated for their in vitro cytotoxicity in […] cell lines from nine human cancer types of leukemia (K-562, SR), non-small cell lung (Hop-62, NCI-H226, NCI-H522), colon (HCT-116, HCT-15, HCC-2998), CNS (SF-539), melanoma (SK-MEL-5, UACC-62, M14), ovarian (IGROV1), renal (A498), prostate (PC3) and breast (BT-549, MDA-MB-435, HS578T) origin. The results are expressed as percent of cell growth determined relative to that of untreated control cells (Table 2).
# MCF7 = assay: NCI SRB cytotoxicity, breast MCF7; assay type: cell-based; conditions: Homo sapiens, 48 h exposure
# Method: as §1
# NCI-H23 = assay: NCI SRB cytotoxicity, non-small cell lung NCI-H23; assay type: cell-based; conditions: Homo sapiens, 48 h exposure
# Method: as §1
# OVCAR-5 = assay: NCI SRB cytotoxicity, ovarian OVCAR-5; assay type: cell-based; conditions: Homo sapiens, 48 h exposure
# Method: as §1
# HCC-2998 = assay: NCI SRB cytotoxicity, colon HCC-2998; assay type: cell-based; conditions: Homo sapiens, 48 h exposure
# Method: as §1
# human tumor cell lines = assay: NCI SRB cytotoxicity, all fifty nine human tumor cell lines; assay type: cell-based; set-up: Log10 TGI mean graph midpoint (MG_MID): unit not given here; conditions: for GI50: Homo sapiens; for cytotoxicity: against cancer cell lines, in words; for LC50: read-out: Log10 LC50 mean graph midpoint (MG_MID) (converted)
# Method: as §1
# The mean graph midpoint values of Log10 TGI and Log10 LC50 as well as Log10 GI50 for compounds 7e, 8e, 10e, 11e, 12e, 13e and 8f is listed in Table-3. […] The mean graph mid points of Log10 TGI and Log10, LC50 have shown similar pattern to the log10 GI50 mean graph mid points.
# MDA-MB-435 [1] = assay: NCI SRB cytotoxicity, melanoma MDA-MB-435; assay type: cell-based; conditions: Homo sapiens, Melanoma panel MDA-MB-435, 48 h exposure
# Method: as §1
# UACC-257 = assay: NCI SRB cytotoxicity, melanoma UACC-257; assay type: cell-based; conditions: Homo sapiens, 48 h exposure
# Method: as §1
# MDA-MB-435 [2] = assay: NCI SRB cytotoxicity, breast panel MDA-MB-435; assay type: cell-based; conditions: Homo sapiens, 48 h exposure
# Method: as §1
# HOP-62 = assay: NCI SRB cytotoxicity, non-small cell lung HOP-62; assay type: cell-based; conditions: Homo sapiens, 48 h exposure
# Method: as §1
# K-562 = assay: NCI SRB cytotoxicity, leukemia K-562; assay type: cell-based; conditions: Homo sapiens, K562, 48 h exposure
# Method: as §1
# Renal = assay: NCI SRB cytotoxicity, renal panel average; assay type: cell-based, human; conditions: average of cell lines; for CC50: read-out: Log10 LC50 (concentration in mol/L causing 50% cell death) (converted)
# Method: as §1
# (§2) Each cancer type represents the average of six to eight different cancer cell lines.
# HOP92 = assay: NCI SRB cytotoxicity, non-small cell lung HOP92; assay type: cell-based; conditions: Homo sapiens, HOP-92, 48 h exposure
# Method: as §1
# HS 578T = assay: NCI SRB cytotoxicity, breast HS 578T; assay type: cell-based; conditions: Homo sapiens, 48 h exposure
# Method: as §1
# IGROV1 = assay: NCI SRB cytotoxicity, ovarian IGROV1; assay type: cell-based; conditions: Homo sapiens, IGROV-1, 48 h exposure
# Method: as §1
# DU-145 = assay: NCI SRB cytotoxicity, prostate DU-145; assay type: cell-based; conditions: Homo sapiens, 48 h exposure
# Method: as §1
# OVCAR-4 = assay: NCI SRB cytotoxicity, ovarian OVCAR-4; assay type: cell-based; conditions: Homo sapiens, 48 h exposure
# Method: as §1
# OVCAR-8 = assay: NCI SRB cytotoxicity, ovarian OVCAR-8; assay type: cell-based; conditions: Homo sapiens, 48 h exposure
# Method: as §1
# HCT-15 = assay: NCI SRB cytotoxicity, colon HCT-15; assay type: cell-based; conditions: Homo sapiens, 48 h exposure
# Method: as §1
# Non-small cell lung = assay: NCI SRB cytotoxicity, non-small cell lung panel average; assay type: cell-based, human; conditions: average of cell lines; for LC50: read-out: Log10 LC50 (concentration in mol/L causing 50% cell death) (converted)
# Method: as §1, §2
# MDA-MB-231/ATCC = assay: NCI SRB cytotoxicity, breast MDA-MB-231/ATCC; assay type: cell-based; conditions: Homo sapiens, 48 h exposure
# Method: as §1
# KM12 = assay: NCI SRB cytotoxicity, colon KM12; assay type: cell-based; conditions: Homo sapiens, 48 h exposure
# Method: as §1
# NCI-H460 = assay: NCI SRB cytotoxicity, non-small cell lung NCI-H460; assay type: cell-based; conditions: Homo sapiens, 48 h exposure
# Method: as §1
# SR = assay: NCI SRB cytotoxicity, leukemia SR; assay type: cell-based; conditions: Homo sapiens, 48 h exposure
# Method: as §1
# 786-0 = assay: NCI SRB cytotoxicity, renal 786-0; assay type: cell-based; conditions: Homo sapiens, 48 h exposure
# Method: as §1
# RPMI-8226 = assay: NCI SRB cytotoxicity, leukemia RPMI-8226; assay type: cell-based; conditions: Homo sapiens, 48 h exposure
# Method: as §1
# SK-OV-3 = assay: NCI SRB cytotoxicity, ovarian SK-OV-3; assay type: cell-based; conditions: Homo sapiens, 48 h exposure
# Method: as §1
# SNB-75 = assay: NCI SRB cytotoxicity, CNS SNB-75; assay type: cell-based; conditions: Homo sapiens, 48 h exposure
# Method: as §1
# SF-295 = assay: NCI SRB cytotoxicity, CNS SF-295; assay type: cell-based; conditions: Homo sapiens, 48 h exposure
# Method: as §1
# U251 = assay: NCI SRB cytotoxicity, CNS U251; assay type: cell-based; conditions: Homo sapiens, U-251, 48 h exposure
# Method: as §1
# [3] = across fifty nine cell lines in nine cell panels, read-out: GI50 value range
# [4] = against human tumor cell lines, read-out: Log10 GI50 mean graph midpoint (MG_MID) (converted)
# [5] = Homo sapiens, read-out: Log10 GI50 (concentration in mol/L causing 50% growth inhibition) (converted)
SMILES,GI50 (SK-MEL-2),GI50 (MCF7),GI50 (NCI-H23),GI50 (OVCAR-5),GI50 (HCC-2998),GI50 (human tumor cell lines; [3]),GI50 (human tumor cell lines; [4]),cytotoxicity (human tumor cell lines),Log10 TGI mean graph midpoint (MG_MID) (human tumor cell lines; against human tumor cell lines),LC50 (human tumor cell lines; against human tumor cell lines),GI50 (MDA-MB-435 [1]),GI50 (UACC-257),GI50 (MDA-MB-435 [2]),GI50 (HOP-62),GI50 (K-562),CC50 (Renal; Homo sapiens),Log10 TGI (concentration in mol/L causing total growth inhibition (0% growth)) (Renal),GI50 (HOP92),GI50 (HS 578T),GI50 (IGROV1),further results
"COc1ccc(C(=O)/C=C/c2cc(-c3cc(OC)c(OC)c(OC)c3)n[nH]2)cc1 [7e, (E)-1-(4-methoxyphenyl)-3-(3-(3,4,5-trimethoxyphenyl)-1H-pyrazol-5-yl)prop-2-en-1-one]",4140 nM,1150 nM,3040 nM,1880 nM,1780 nM,180 to 29200 nM,1780 nM,significant cytotoxicity,−5.31,33900 nM,2200 nM,1750 nM,1290 nM,1760 nM,2320 nM,18200 nM,−5.43 mol/L,1060 nM,3600 nM,2210 nM,GI50 (Renal; [5]): 1820 nM; GI50 (DU-145): 1430 nM; GI50 (OVCAR-4): 2200 nM; GI50 (OVCAR-8): 2430 nM; GI50 (HCT-15): 1580 nM; GI50 (Non-small cell lung; [5]): 1820 nM; LC50 (Non-small cell lung; Homo sapiens): 21900 nM; Log10 TGI (concentration in mol/L causing total growth inhibition (0% growth)) (Non-small cell lung): −5.36 mol/L; GI50 (MDA-MB-231/ATCC): 1880 nM; GI50 (KM12): 1560 nM; GI50 (NCI-H460): 1720 nM; GI50 (SR): 340 nM; GI50 (786-0): 1950 nM; GI50 (RPMI-8226): 430 nM; GI50 (SK-OV-3): 3990 nM; GI50 (SNB-75): 1490 nM
"COc1ccc(C(=O)/C=C/c2cc(-c3ccc4c(c3)OCO4)n[nH]2)cc1OC [8f, (E)-3-(3-(benzo[d][1,3]dioxol-5-yl)-1H-pyrazol-5-yl)-1-(3,4-dimethoxyphenyl)prop-2-en-1-one]",6930 nM,3200 nM,4120 nM,3360 nM,4990 nM,180 to 29200 nM,2750 nM,significant cytotoxicity,−4.98,43700 nM,3030 nM,7060 nM,1800 nM,2080 nM,2470 nM,32400 nM,−5.01 mol/L,2160 nM,2600 nM,2790 nM,GI50 (SF-295): 2510 nM; Log10 GI50 (concentration in mol/L causing 50% growth inhibition) (Renal): −5.46 mol/L; GI50 (U251): 1580 nM; GI50 (DU-145): 1800 nM; GI50 (OVCAR-4): 2110 nM; GI50 (OVCAR-8): 2150 nM; GI50 (HCT-15): 2810 nM; LC50 (Non-small cell lung; Homo sapiens): 513000 nM; Log10 GI50 (concentration in mol/L causing 50% growth inhibition) (Non-small cell lung): −5.6 mol/L; Log10 TGI (concentration in mol/L causing total growth inhibition (0% growth)) (Non-small cell lung): −5.08 mol/L; GI50 (MDA-MB-231/ATCC): 2400 nM; GI50 (KM12): 2860 nM; GI50 (NCI-H460): 1810 nM; GI50 (SR): 1270 nM; GI50 (786-0): 3120 nM; GI50 (RPMI-8226): 1030 nM; GI50 (SK-OV-3): 3970 nM; GI50 (SNB-75): 1980 nM
